The results in this text go back to PubChem BioAssay (NCI).

Some test systems named below: SF-268 CNS; BT-549 breast; LOX IMVI melanoma; NCI-H226 lung; NCI-H23 lung; HCT-15 colon; RXF 393 renal; NCI-H460 lung; SK-MEL-5 melanoma; HOP-92 NSCLC.
Common to all, as to test: growth of human tumour cells (NCI), 48 h

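Briefly, cells in 96-well plates were exposed to five compound concentrations for 48 h, and endpoints were estimated by linear interpolation. GI50 = concentration required for 50% inhibition of growth. TGI: concentration producing complete growth inhibition.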

As for `COc1ccc(CNCCCN2C(=O)c3ccc4c5c(ccc(c35)C2=O)C(=O)N(CCCNCCCCNCCCN)C4=O)c(OC)c1OC`, the GI50 with SF-268 CNS is 0.955 µM; in the test with BT-549 breast, 6.13 µM; with LOX IMVI melanoma, 0.654 µM; in the test on NCI-H226 lung, 2.11 µM; in the test with NCI-H23 lung, 1.35 µM; in the test on HCT-15 colon it was 2.76 µM. Also, the GI50 was 1.36 µM in the test on RXF 393 renal and 0.703 µM in the test on NCI-H460 lung. Also, the TGI with SF-268 CNS was 13.2 µM; with BT-549 breast, 21.5 µM; in the test with LOX IMVI melanoma, 7.83 µM; in the test with NCI-H226 lung, 16.4 µM; with NCI-H23 lung, 4.22 µM; in the test on HCT-15 colon, 7.94 µM. Besides, the TGI worked out at 3.67 µM with RXF 393 renal and 7.03 µM in the test with NCI-H460 lung.

With `S=C1SC2(CCCCCC2)NC2=C1CCCCC2`, the TGI in the test with SF-268 CNS was greater than 100 µM; in the test with SK-MEL-5 melanoma, 43.2 µM; with HOP-92 NSCLC, 67.3 µM; in the test on LOX IMVI melanoma, greater than 100 µM; in the test on NCI-H226 lung, 52.4 µM; in the test with NCI-H23 lung, greater than 100 µM. Also, the TGI with HCT-15 colon is greater than 100 µM; with RXF 393 renal it was greater than 100 µM; with NCI-H460 lung, 77.9 µM.

`C=CC1(C)/C(=N\O)C(C)(CC)C(=O)N1O` (stereo not given): the TGI in the test with SF-268 CNS, in the test on SK-MEL-5 melanoma, with HOP-92 NSCLC, in the test with LOX IMVI melanoma, with NCI-H23 lung and in the test with HCT-15 colon was greater than 100 µM each time. In addition, the TGI in the test on RXF 393 renal and in the test with NCI-H460 lung was greater than 100 µM each time.

Take `N#C/C(=C/c1cccs1)c1cccs1`: the GI50 in the test with SF-268 CNS is greater than 100 µM; in the test with SK-MEL-5 melanoma, greater than 100 µM; in the test on HOP-92 NSCLC, 27.8 µM; in the test with LOX IMVI melanoma, greater than 100 µM; in the test with NCI-H226 lung it was greater than 100 µM; in the test with NCI-H23 lung, greater than 100 µM. Besides, the GI50 was greater than 100 µM with HCT-15 colon, 38 µM in the test with RXF 393 renal and greater than 100 µM in the test with NCI-H460 lung. Moreover, the TGI in the test on SF-268 CNS, with SK-MEL-5 melanoma, in the test on HOP-92 NSCLC, in the test with LOX IMVI melanoma, in the test with NCI-H226 lung and with NCI-H23 lung was greater than 100 µM throughout. The TGI with HCT-15 colon, in the test on RXF 393 renal and in the test with NCI-H460 lung was greater than 100 µM each time.

Regarding `CP(=O)(CCSc1ccccc1)c1ccccc1` (stereo not given), the TGI with SF-268 CNS, with SK-MEL-5 melanoma, in the test on HOP-92 NSCLC, in the test on LOX IMVI melanoma, in the test with NCI-H226 lung and in the test on NCI-H23 lung was greater than 100 µM each time. In addition, the TGI with HCT-15 colon, with RXF 393 renal and with NCI-H460 lung was greater than 100 µM each time.

On to `c1ccc2c(c1)[Se]c1ccccc1[Se]2`, for which the TGI is greater than 100 µM in the test on SF-268 CNS; greater than 100 µM in the test with SK-MEL-5 melanoma; 76.3 µM in the test on HOP-92 NSCLC; greater than 100 µM in the test on LOX IMVI melanoma; greater than 100 µM in the test on NCI-H226 lung; greater than 100 µM in the test with NCI-H23 lung. For the same compound, the TGI in the test on RXF 393 renal and in the test on NCI-H460 lung was greater than 100 µM in each case.

For the compound `CC(C)c1cccc2sc(NC(=O)C(=O)CC(=O)c3ccc(F)cc3)nc12`, the TGI in the test with SF-268 CNS, in the test on SK-MEL-5 melanoma, with HOP-92 NSCLC, in the test on LOX IMVI melanoma, in the test on NCI-H226 lung and in the test with NCI-H23 lung was greater than 100 µM throughout. For the same compound, the TGI in the test on HCT-15 colon, in the test with RXF 393 renal and in the test on NCI-H460 lung was greater than 100 µM each time.

As for `CN1NC(c2ccccc2)=C(C#N)C(=O)CC1c1ccccc1Cl` (stereo not given), the TGI in the test on SF-268 CNS, in the test on SK-MEL-5 melanoma, in the test with HOP-92 NSCLC, in the test with LOX IMVI melanoma, in the test with NCI-H226 lung and with NCI-H23 lung was greater than 100 µM each time. Moreover, the TGI in the test with HCT-15 colon, in the test on RXF 393 renal and with NCI-H460 lung was greater than 100 µM each time.

Turning to `CCC(=O)[O-].CCC(=O)[O-].N.N.N.N.[Co+3].[O-][Cl+3]([O-])([O-])[O-]`, the GI50 with SF-268 CNS was greater than 100 µM; in the test with SK-MEL-5 melanoma it was greater than 100 µM; in the test with HOP-92 NSCLC, 27.2 µM; in the test on LOX IMVI melanoma, greater than 100 µM; in the test with NCI-H23 lung, greater than 100 µM; with HCT-15 colon it was greater than 100 µM. For the same compound, the GI50 in the test with NCI-H460 lung is greater than 100 µM. The TGI in the test with SF-268 CNS, in the test on SK-MEL-5 melanoma, in the test on HOP-92 NSCLC, with LOX IMVI melanoma, in the test on NCI-H23 lung and with HCT-15 colon was greater than 100 µM throughout. For the same compound, in the test with NCI-H460 lung, the TGI is greater than 100 µM.

Consider `CCCC(=O)C(CC)/C(CCC(=O)N(Cc1ccccc1)Cc1ccccc1)=N/NC(=O)C[N+](C)(C)C` (stereo not given), for which the TGI in the test with SF-268 CNS, in the test with SK-MEL-5 melanoma, in the test with HOP-92 NSCLC, with NCI-H226 lung, with NCI-H23 lung and in the test with RXF 393 renal was greater than 100 µM throughout. For the same compound, the TGI with NCI-H460 lung was greater than 100 µM.

On to `NC(N)=NS(=O)(=O)c1ccc(NC(=O)c2ccc(Cl)c3c(Nc4ccc(S(=O)(=O)N=C(N)N)cc4)c4ccccc4nc23)cc1`, for which the TGI was greater than 100 µM in the test with SF-268 CNS; 79.9 µM with HOP-92 NSCLC; greater than 100 µM in the test on LOX IMVI melanoma; greater than 100 µM in the test on NCI-H23 lung; greater than 100 µM with HCT-15 colon; greater than 100 µM in the test with RXF 393 renal. The TGI in the test on NCI-H460 lung was greater than 100 µM.

`CCOc1ccccc1N=C(NC(=O)CC)SC`: the GI50 in the test with SF-268 CNS was greater than 100 µM; in the test with LOX IMVI melanoma, greater than 100 µM; in the test on NCI-H226 lung, greater than 100 µM; with NCI-H23 lung, greater than 10 µM; with HCT-15 colon, greater than 10 µM; in the test on RXF 393 renal, greater than 100 µM. Moreover, the GI50 in the test with NCI-H460 lung was greater than 100 µM. For the same compound, the TGI in the test with SF-268 CNS is greater than 100 µM; in the test on SK-MEL-5 melanoma, greater than 10 µM; in the test on HOP-92 NSCLC, greater than 10 µM; with LOX IMVI melanoma, greater than 100 µM; with NCI-H226 lung, greater than 100 µM; with NCI-H23 lung it was greater than 100 µM. Besides, the TGI in the test with HCT-15 colon, with RXF 393 renal and with NCI-H460 lung was greater than 100 µM in each case.
